What was measured:
[1] = test system: IFNγ-induced NO production in RAW264.7 mouse macrophages; test: Suppression of IFNγ-induced nitric oxide production (Griess reagent); type: cell-based; details: 2 h pre-treatment (0-200 nM), then IFNγ 24 h, normalized to cell viability
Text: Nitric Oxide Production and Cell Viability.

[2] = test system: Nrf2 transcription factor (human NQO1-ARE reporter) in HuH7 cells; test: NQO1-ARE Luciferase Reporter Assay; type: cell-based; details: Huh-7, 62.5 nM, 18 h, fold over DMSO vehicle, Firefly normalized to Renilla
Text: NQO1-ARE Luciferase Reporter Assay.
This assay allows for quantitative assessment of the endogenous activity of the Nrf2 transcription factor in cultured mammalian cells. Expression of Firefly luciferase from NQO1-ARE luciferase reporter plasmid is controlled by binding of Nrf2 to a specific enhancer sequence corresponding to the antioxidant response element (ARE) that was identified in the promoter region of the human NADPH:quinone oxidoreductase 1 (NQO1) gene (Xie et al., 1995). The plasmid was constructed by inserting a sequence:
5′-[…]-3′ (SEQ ID NO:1) encompassing the human NQO1-ARE into the pLuc-MCS vector using HindIII/XhoI cloning sites (GenScript Corp., Piscataway, N.J.). The assay is performed in HuH7 cells maintained in DMEM (Invitrogen) supplemented with 10% FBS and 100 U/ml (each) of penicillin and streptomycin. For the assay, cells are plated in 96-well plates at 17,000 cells per well. Twenty four hours later, the cells are co-transfected with 50 ng each of NQO1-ARE reporter plasmid and pRL-TK plasmid using Lipofectamine 2000 transfection reagent (Invitrogen). pRL-TK plasmid constitutively expresses Renilla luciferase and is used as an internal control for normalization of transfection levels. Thirty hours after transfection, the cells are treated with compounds (at concentrations ranging from 0 to 1 μM) for eighteen hours. Firefly and Renilla luciferase activity is assayed by Dual-Glo Luciferase Assay (Promega Corp., Madison, Wis.), the luminescence signal is measured on an L-Max II luminometer (Molecular Devices). Firefly luciferase activity is normalized to the Renilla activity, and fold induction over a vehicle control (DMSO) of normalized Firefly activity is calculated. The fold induction at 62.5 nM concentration is used for comparing relative potencies of compounds to induce Nrf2 transcriptional activity. See Xie T, Belinsky M, Xu Y, Jaiswal A K. ARE- and TRE-mediated regulation of gene expression. Response to xenobiotics and antioxidants. J Biol Chem. (1995) 270(12):6894-6900, which is incorporated herein by reference.

[3] = Mus musculus, RAW264.7, RAW264.7 cells

Row | SMILES | IC50 [1, 3] | fold induction at 0.0625 µM [2] | IC50 ([1]; RAW264.7 cells)
1 | Cn1nc2c(c1-c1ccccc1)CC[C@H]1[C@H](Cc3ccccc3)C(=O)C(C#N)=C[C@]21C [TX63607] | > 0.2 µM | 1 | 
2 | Cn1cc2c(n1)[C@@]1(C)C=C(C#N)C(=O)C(C)(C)[C@@H]1CC2 [TX63341] |  | 1.7 | 0.07 µM
3 | Cc1nc2c(c(=O)n1C)CC[C@H]1C(C)(C)C(=O)C(C#N)=C[C@]21C [TX63584] | > 0.2 µM | 3.1 | 
4 | CN1C(=O)C(C#N)=C[C@]2(C)c3nn(C)c(-c4ccccc4)c3CC[C@@H]12 [TX63568] | > 0.2 µM | 1.3 | 
5 | Cn1nc2c(c1NC(=O)c1ccccc1)CC[C@H]1C(C)(C)C(=O)C(C#N)=C[C@]21C [TX63531] | > 0.2 µM | 1.1 | 
6 | CC(C)(C)c1ncc2c(n1)[C@@]1(C)C=C(C#N)C(=O)C(C)(C)[C@@H]1CC2 [TX63561] | 0.044 µM | 2.4 | 
7 | Cc1ncc2c(n1)[C@@]1(C)C=C(C#N)C(=O)[C@@H](C)[C@@H]1CC2 [TX63554] | 0.042 µM | 1.9 | 
8 | Cn1nc2c(c1-c1ccccc1)CC[C@H]1CC(=O)C(C#N)=C[C@]21C [TX63540] | 0.0668 µM | 1.6 | 
9 | COc1nc(-c2cccnc2)nc2c1CC[C@H]1[C@H](C)C(=O)C(C#N)=C[C@]21C [TX63724] | 0.0031 µM | 4.9 | 
10 | CC1(C)C(=O)C(C#N)=C[C@]2(C)c3nc(-c4cccnc4)ncc3CC[C@@H]12 [TX63586] | 0.022 µM | 2.9 | 
11 | Cn1nc2c(c1Cc1ccccc1)CC[C@H]1C(C)(C)C(=O)C(C#N)=C[C@]21C [TX63550] | 0.054 µM | 1.8 | 
12 | C[C@@H]1C(=O)C(C#N)=C[C@]2(C)c3nn(C)c(-c4ccccc4)c3CC[C@@H]12 (racemic) [TX63541] | 0.006 µM | 4.4 | 
13 | Cc1ncc2c(n1)[C@@]1(C)C=C(C#N)C(=O)C(C)(C)[C@@H]1CC2 [TX63468] | 0.064 µM | 2 | 
14 | Cn1nc2c(c1-c1ccccc1)CC[C@H]1C(C)(C)C(=O)C(C#N)=C[C@]21C [TX63465] | 0.0183 µM | 4.8 | 
15 | CC[C@@H]1C(=O)C(C#N)=C[C@]2(C)c3nn(C)c(-c4ccccc4)c3CC[C@@H]12 [TX63599] | 0.014 µM | 3.2 | 
16 | CC1(C)C(=O)C(C#N)=C[C@]2(C)c3c(c(-c4ccccc4)nn3-c3ccccc3)CC[C@@H]12 [TX63605] | 0.037 µM | 2.8 | 
17 | CC[C@@H]1C(=O)C(C#N)=C[C@]2(C)c3nc(-c4ccccc4)ncc3CC[C@@H]12 [TX63598] | 0.012 µM | 1.9 | 
18 | COc1cccc(-c2c3c(nn2C)[C@@]2(C)C=C(C#N)C(=O)C(C)(C)[C@@H]2CC3)c1 [TX63513] | 0.025 µM | 2.9 | 
19 | CC1(C)C(=O)C(C#N)=C[C@]2(C)c3nc(-c4ccccc4)ncc3CC[C@@H]12 [TX63552] | 0.024 µM | 1.9 | 
20 | Cn1cc(-c2c3c(nn2C)[C@@]2(C)C=C(C#N)C(=O)C(C)(C)[C@@H]2CC3)cn1 [TX63588] | 0.033 µM | 5.2 | 
21 | Cn1nc2c(c1Cl)CC[C@H]1C(C)(C)C(=O)C(C#N)=C[C@]21C [TX63604] | 0.049 µM | 3.4 | 
22 | Cn1nc2c(c1-c1cccnc1)CC[C@H]1C(C)(C)C(=O)C(C#N)=C[C@]21C [TX63503] | 0.017 µM | 5.5 | 
23 | Cc1cccc(-c2c3c(nn2C)[C@@]2(C)C=C(C#N)C(=O)C(C)(C)[C@@H]2CC3)c1 [TX63512] | 0.025 µM | 1.4 | 
24 | CC(C)n1nnc(-c2c3c(nn2C)[C@@]2(C)C=C(C#N)C(=O)C(C)(C)[C@@H]2CC3)n1 [TX63734] | 0.043 µM |  | 
25 | COc1c2c(nn1C)[C@@]1(C)C=C(C#N)C(=O)C(C)(C)[C@@H]1CC2 [TX63691] | 0.062 µM |  | 
26 | CC1(C)C(=O)C(C#N)=C[C@]2(C)c3nn(-c4ccccc4)c(-c4ccccc4)c3CC[C@@H]12 [TX63544] | 0.039 µM |  | 

Row | SMILES | IC50 [1, 3] | fold induction at 0.0625 µM [2] | IC50 ([1]; RAW264.7 cells)
27 | Cn1nc2c(c1-c1ccccc1F)CC[C@H]1C(C)(C)C(=O)C(C#N)=C[C@]21C [TX63519] | 0.021 µM | 2.5 | 
28 | CN1N=C2C(C)(CC[C@H]3C(C)(C)C(=O)C(C#N)=C[C@]23C)C1=O (some centres unmarked) [TX63692] | > 0.2 µM |  | 
29 | Cn1nc2c(c1C#N)CC[C@H]1C(C)(C)C(=O)C(C#N)=C[C@]21C [TX63613] | 0.101 µM |  | 
30 | CC1(C)C(=O)C(C#N)=C[C@]2(C)c3c(cnc4c(Br)cnn34)CC[C@@H]12 [TX63615] | 0.052 µM |  | 
31 | Cn1nc2c(c1-c1ccc3ccccc3c1)CC[C@H]1C(C)(C)C(=O)C(C#N)=C[C@]21C [TX63600] | 0.059 µM |  | 
32 | CC(C)c1ncc2c(n1)[C@@]1(C)C=C(C#N)C(=O)C(C)(C)[C@@H]1CC2 [TX63534] | 0.049 µM |  | 
33 | C[C@@H]1C(=O)C(C#N)=C[C@]2(C)c3nc(-c4ccccc4)ncc3CC[C@@H]12 [TX63569] | 0.0098 µM | 2 | 
34 | COCO[C@H]1CCC[C@H]2C(C)(C)C(=O)C(C#N)=C[C@]12C [TX63364] | > 0.2 µM |  | 
35 | Cc1nnc(-c2c3c(nn2C)[C@@]2(C)C=C(C#N)C(=O)C(C)(C)[C@@H]2CC3)o1 [TX63735] | 0.0156 µM |  | 
36 | C[C@@H]1C(=O)C(C#N)=C[C@]2(C)c3n[nH]c(-c4ccccc4)c3CC[C@@H]12 [TX63836] | 0.0061 µM |  | 
37 | CCOc1nc(-c2ccccc2)nc2c1CC[C@H]1[C@H](C)C(=O)C(C#N)=C[C@]21C [TX63731] | 0.032 µM |  | 
38 | COc1ncc2c(n1)[C@@]1(C)C=C(C#N)C(=O)C(C)(C)[C@@H]1CC2 [TX63528] | 0.085 µM |  | 
39 | Cc1nc(-c2ncc3c(n2)[C@@]2(C)C=C(C#N)C(=O)C(C)(C)[C@@H]2CC3)cs1 [TX63628] | 0.062 µM |  | 
40 | Cc1noc(C)c1-c1c2c(nn1C)[C@@]1(C)C=C(C#N)C(=O)C(C)(C)[C@@H]1CC2 [TX63625] | 0.077 µM |  | 
41 | COc1nc(C(C)(C)C)nc2c1CC[C@H]1[C@H](C)C(=O)C(C#N)=C[C@]21C [TX63853] | 0.031 µM |  | 
42 | Cc1cccc(-c2ncc3c(n2)[C@@]2(C)C=C(C#N)C(=O)C(C)(C)[C@@H]2CC3)c1 [TX63583] | 0.033 µM |  | 
43 | CC1(C)C(=O)C(C#N)=C[C@]2(C)c3nc(-c4ccc(Cl)cc4)ncc3CC[C@@H]12 [TX63582] | 0.033 µM |  | 
44 | Cn1nc2c(c1-c1cccc(F)c1)CC[C@H]1C(C)(C)C(=O)C(C#N)=C[C@]21C [TX63506] | 0.025 µM | 3.2 | 
45 | Cn1nc2c(c1C1CCCCC1)CC[C@H]1C(C)(C)C(=O)C(C#N)=C[C@]21C [TX63591] | 0.074 µM |  | 
46 | Cn1nc2c(c1-c1ccncc1)CC[C@H]1C(C)(C)C(=O)C(C#N)=C[C@]21C [TX63505] | 0.016 µM | 6.8 | 
47 | CC(C)c1c2c(nn1C)[C@@]1(C)C=C(C#N)C(=O)C(C)(C)[C@@H]1CC2 [TX63547] | 0.087 µM | 3.1 | 
48 | C#Cc1c2c(nn1C)[C@@]1(C)C=C(C#N)C(=O)C(C)(C)[C@@H]1CC2 [TX63651] | 0.023 µM |  | 
49 | COc1nc(C2CC2)nc2c1CC[C@H]1[C@H](C)C(=O)C(C#N)=C[C@]21C [TX63761] | 0.0089 µM |  | 
50 | Cc1nnc(-c2c3c(nn2C)[C@@]2(C)C=C(C#N)C(=O)[C@@H](C)[C@@H]2CC3)o1 [TX63857] | 0.0063 µM |  | 
51 | COc1nc(OC)c2c(n1)[C@@]1(C)C=C(C#N)C(=O)[C@@H](C)[C@@H]1CC2 [TX63718] |  |  | 0.006 µM
52 | Cc1ccccc1-c1c2c(nn1C)[C@@]1(C)C=C(C#N)C(=O)C(C)(C)[C@@H]1CC2 [TX63508] | 0.033 µM |  | 
